From patent US11667675B2, “MASP inhibitory compounds and uses thereof” (Bayer Aktiengesellschaft, priority 2019, dated 2023)
Bridge positions count the residues as written; N and C are the ends. Square brackets hold non-standard residues; d marks the D form. Peptide text beside a SMILES is read from it. PEG9 = NCCOCCOCCOCCOCCOCCOCCOCCOCCOCCC(=O)O; Pro(4-spirocPr) = O=C(O)[C@@H]1CC2(CC2)CN1; tBuAla = CC(C)(C)C[C@H](N)C(=O)O; Pen = CC(C)(S)[C@H](N)C(=O)O; NMeC = CN[C@@H](CS)C(=O)O; Sar = CNCC(=O)O

How the values were obtained:
[1] = system: rat C3-[…]; assay: C3 deposition assay, rat serum on mannan-coated plates; format: biochemical; settings: average IC50
Procedure: (§1) 3. C3 Deposition Assay (Human, Rat, Mouse, Dog, Mini-Pig)
(§2) The C3 deposition assay was conducted essentially as described (reference). Multi well plates (Greiner-Nunc 384 Maxi Sorp #464718) were coated over night with Mannan from Saccharomyces cerevisiae (Sigma M7504, 10 μg/mL in 0.05 M carbonate-bicarbonate buffer, pH 9.6) at 4° C. Wells were washed three times with TBS and subsequently incubated for 2 hours with 50 μL of 1% bovine serum albumin (BSA) in Tris-buffered saline (TBS) at 37° C. in order to block non-specific binding. After this step and each of the following incubation steps wells were washed three times with C3 wash buffer (TBS; 0.05% Tween 20; 5 mM CaCl2). […] When appropriately developed the color reaction was stopped by addition of 25 μL of stop solution (Sigma S5814) and quantified on a photometer by measuring absorption at a wavelength of 450 nm. Antibodies were diluted in C3 wash buffer supplemented with 0.5% BSA.

[2] = system: Human C3-[…]; assay: C3 deposition assay, human serum on mannan-coated plates; format: biochemical; settings: average IC50, read-out: Human C3-DEPOSITION SERUM IC50
Procedure: as §1, §2

[3] = target: T1, rat MASP1 (Rattus norvegicus, UniProt Q8CHN8); assay: Biochemical rat MASP1 assay (FRET substrate); settings: average IC50; recombinant rat MASP1, FRET substrate
T1 construct: Ig-kappa secretion signal (N, cleaved yes); made in house; host or cells: HEK293 (ATCC No. CRL-1573)
T1 sequence (Q8CHN8 302-453 limits assumed): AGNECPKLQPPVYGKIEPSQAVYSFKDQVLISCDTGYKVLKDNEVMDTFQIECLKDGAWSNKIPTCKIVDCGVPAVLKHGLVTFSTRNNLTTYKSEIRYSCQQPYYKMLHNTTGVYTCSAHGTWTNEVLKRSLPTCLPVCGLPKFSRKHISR
T1 sequence (Q8CHN8 454-704 limits assumed): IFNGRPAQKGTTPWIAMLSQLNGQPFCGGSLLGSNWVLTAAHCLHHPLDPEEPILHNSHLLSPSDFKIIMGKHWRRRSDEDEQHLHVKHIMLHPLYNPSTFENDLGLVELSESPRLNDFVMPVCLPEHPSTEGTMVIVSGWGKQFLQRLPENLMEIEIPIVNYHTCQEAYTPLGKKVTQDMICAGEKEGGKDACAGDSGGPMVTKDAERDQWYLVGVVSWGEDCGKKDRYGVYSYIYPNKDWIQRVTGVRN
Excerpt: (§3) 4. Biochemical Rat MASP-1 and MASP-2 Assay
(§4) 4.1 Recombinant Expression and Protein Production of Recombinant Human and Rat MASP1 and MASP2 Active Proteases.
A truncated cDNA sequence of rat MASP1 encoding the fragment corresponding to the amino acids 302-704 with an C-terminal His Tag and N-terminal Ig-kappa secretion signal (SEQ ID No: 4) was subcloned into the mammalian expression vector pcDNA3.1 (Invitrogen).
(§5) The MASP1 or MASP2 expression vectors were transfected into the HEK293 (ATCC No. CRL-1573) cell line using Lipofectamine LTX® Reagent (Thermo-Fischer), as described by the manufacturer. The mature form of the recombinant rat MASP1 and MASP2 proteases were secreted into the culture medium. The MASP1 and MASP2 proteins were purified from the conditioned media by affinity chromatography on Ni-NTA Superflow resin (Qiagen) as described by the manufacturer.
4.2 Biochemical Rat MASP1 Assay.
Recombinant rat MASP1 enzyme produced in the HEK 293 cells was diluted in the reaction buffer (50 mM HEPES pH 8,0; 100 mM NaCl; 0.01% CHAPS; 0.5 mM Gluthathione) to the concentration of 4 nM and 25 μl was transferred into each single well of 384-well white microtiter plate (Greiner Bio One 781075). 1 μl of the inhibitor compound solution (dissolved in DMSO, at the corresponding concentration) or pure DMSO as a control was added to the same wells. The enzymatic reaction was initiated by addition of 25 μl of 40 μM solution of the FRET substrate Dabcyl-[…]-Glu(Edans)-NH2 (SEQ ID NO: 8); (Dabcyl—4-((4-(dimethylamino)phenyl)azo)benzoic acid; Edans—5-[(2-Aminoethyl) amino]naphthalene-1-sulfonyl; custom synthesis by Jerini Peptide Technologies, Berlin) in the reaction buffer. The microtiter plate was incubated for 60-120 min at the temperature of 32 C. The increase of fluorescence intensity was measured in appropriate fluorescence plate reader (e.g. TECAN Ultra) using excitation wavelength of 340 nm and emission wavelength of 490 nm. IC50 values were calculated from percentage of inhibition of rat […] activity as a function of test compound concentration.

[4] = target: T2, human MASP1 (Homo sapiens, UniProt P48740); assay: Biochemical human MASP1 assay (FRET substrate); settings: average IC50
T2 construct: Ig-kappa secretion signal (N, cleaved yes); made in house; host or cells: HEK293 (ATCC No. CRL-1573)
T2 sequence (P48740 297-448): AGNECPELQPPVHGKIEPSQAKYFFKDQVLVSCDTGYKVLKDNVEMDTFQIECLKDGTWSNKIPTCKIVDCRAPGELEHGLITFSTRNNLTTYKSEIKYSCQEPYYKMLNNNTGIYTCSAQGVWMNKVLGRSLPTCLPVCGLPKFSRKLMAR
T2 sequence (P48740 449-699): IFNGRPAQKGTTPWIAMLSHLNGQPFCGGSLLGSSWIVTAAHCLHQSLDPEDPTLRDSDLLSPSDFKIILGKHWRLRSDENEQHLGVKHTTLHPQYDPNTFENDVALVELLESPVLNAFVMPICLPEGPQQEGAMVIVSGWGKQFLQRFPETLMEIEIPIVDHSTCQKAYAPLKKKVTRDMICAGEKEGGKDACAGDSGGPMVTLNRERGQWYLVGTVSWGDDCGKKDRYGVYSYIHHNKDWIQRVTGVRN
Excerpt: (§6) 2.1 Recombinant Expression and Protein Production of Recombinant Human MASP1 and MASP2 Active Proteases.
as §5, with “The mature form of the recombinant rat MASP1 and MASP2 proteases were secreted into the culture medium.” left out
2.2 Biochemical Human MASP1 Assay
(§7) Recombinant human MASP1 enzyme produced in the HEK 293 cells was diluted in the reaction buffer (50 mM HEPES pH 8,0; 100 mM NaCl; 0.01% CHAPS; 0.5 mM Gluthathione) to the concentration of 20 nM and 25 μl was transferred into each single well of 384-well white microtiter plate (Greiner Bio One 781075). 1 μl of the inhibitor compound solution (dissolved in DMSO, at the corresponding concentration) or pure DMSO as a control was added to the same wells. […] The microtiter plate was incubated for 60-120 min at the temperature of 32 C. The increase of fluorescence intensity was measured in appropriate fluorescence plate reader (e.g. TECAN Ultra) using excitation wavelength of 320 nm and emission wavelength of 420 nm. IC50 values were calculated from percentage of inhibition of human MASP1 activity as a function of test compound concentration.

[5] = target: T3, rat MASP2 (Rattus norvegicus, UniProt Q9JJS8); assay: Biochemical rat MASP2 assay (FRET substrate); settings: average IC50; recombinant rat MASP2, FRET substrate
T3 construct: Ig-kappa secretion signal (N, cleaved yes); made in house; host or cells: HEK293 (ATCC No. CRL-1573)
Excerpt: as §3, §4, §5
4.3 Biochemical Rat MASP2 Assay.
Recombinant rat MASP2 enzyme produced in the HEK 293 cells was diluted in the reaction buffer (50 mM HEPES pH 8,0; 100 mM NaCl; 0.01% CHAPS; 0.5 mM Gluthathione) to the concentration of 20 nM and 25 μl was transferred into each single well of 384-well white microtiter plate (Greiner Bio One 781075). 1 μl of the inhibitor compound solution (dissolved in DMSO, at the corresponding concentration) or pure DMSO as a control was added to the same wells. The enzymatic reaction was initiated by addition of 25 μl of 30 μM solution of the FRET substrate Abz-IEGRTSED-(Lys)Dnp-NH2 (SEQ ID NO: 9); (ABZ—2-aminobenzoyl; DNP_2,4-dinitrophenyl; custom synthesis by Jerini Peptide Technologies, Berlin) in the reaction buffer. The microtiter plate was incubated for 60-120 min at the temperature of 32 C. The increase of fluorescence intensity was measured in appropriate fluorescence plate reader (e.g. TECAN Ultra) using excitation wavelength of 320 nm and emission wavelength of 420 nm. IC50 values were calculated from percentage of inhibition of rat […] activity as a function of test compound concentration.

[6] = target: T4, human MASP2 (Homo sapiens, UniProt O00187); assay: Biochemical human MASP2 assay (FRET substrate); settings: average IC50
T4 construct: Ig-kappa secretion signal (N, cleaved yes); made in house; host or cells: HEK293 (ATCC No. CRL-1573)
Excerpt: as §6
as §5, with “The mature form of the recombinant rat MASP1 and MASP2 proteases were secreted into the culture medium.” left out
2.3 Biochemical Human MASP2 Assay
as §7, with “MASP2” for “MASP1”, “340” for “320”, “490” for “420”

T3 sequence (Q9JJS8 296-443): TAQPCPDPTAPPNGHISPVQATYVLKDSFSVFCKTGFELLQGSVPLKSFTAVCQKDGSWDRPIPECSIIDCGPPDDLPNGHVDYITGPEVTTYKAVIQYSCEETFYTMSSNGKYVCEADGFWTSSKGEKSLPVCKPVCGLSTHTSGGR
T3 sequence (Q9JJS8 444-685): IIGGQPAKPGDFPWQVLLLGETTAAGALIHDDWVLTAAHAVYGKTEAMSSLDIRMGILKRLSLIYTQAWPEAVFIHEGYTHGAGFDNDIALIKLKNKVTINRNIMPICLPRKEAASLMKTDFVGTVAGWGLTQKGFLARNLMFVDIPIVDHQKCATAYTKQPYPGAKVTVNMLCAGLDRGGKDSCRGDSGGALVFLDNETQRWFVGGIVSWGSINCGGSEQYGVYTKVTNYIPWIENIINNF
T4 sequence (O00187 297-444): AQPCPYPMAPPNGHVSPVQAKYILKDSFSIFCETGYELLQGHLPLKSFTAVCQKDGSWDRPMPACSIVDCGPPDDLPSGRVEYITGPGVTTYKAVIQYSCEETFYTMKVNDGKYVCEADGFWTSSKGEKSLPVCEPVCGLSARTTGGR
T4 sequence (O00187 445-686): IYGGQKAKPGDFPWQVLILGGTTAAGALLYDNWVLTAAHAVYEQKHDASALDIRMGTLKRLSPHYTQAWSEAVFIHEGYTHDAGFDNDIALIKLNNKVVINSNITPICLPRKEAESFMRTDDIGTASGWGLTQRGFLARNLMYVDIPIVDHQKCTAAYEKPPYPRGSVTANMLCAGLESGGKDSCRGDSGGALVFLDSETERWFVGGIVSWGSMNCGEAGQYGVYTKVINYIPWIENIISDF

Compound: CC[C@H](C)[C@H](NC(=O)[C@H](C)N)C(=O)N[C@H]1CSSC(C)(C)[C@@H](C(=O)N[C@H](C(=O)N2CCC[C@H]2C(=O)N[C@@H](CC(=O)O)C(N)=O)[C@@H](C)CC)NC(=O)[C@H]([C@@H](C)CC)NC(=O)[C@@H]2C[C@@H]3CCCC[C@@H]3N2C(=O)[C@@H]2CCCN2C(=O)[C@H](CC(C)C)NC(=O)[C@H](CO)NC(=O)[C@H](CCCNC(=N)N)NC(=O)[C@H](CO)NC1=O [Example 75, AIC+SRSLP-(Oic)-I-(Pen)+IPD-NH2]
- IC50 [1]: 183 nM
- IC50 [2]: 32 nM
- IC50 [3]: 35 nM
- IC50 [4]: 2.23 nM
- IC50 [5]: 34.9 nM

Compound: CCC(C)[C@H](NC(=O)[C@H]1NC(=O)[C@H]([C@@H](C)CC)NC(=O)[C@@H]2C[C@@H]3CCCC[C@@H]3N2C(=O)[C@@H]2CCCN2C(=O)[C@H](CC(C)C)NC(=O)[C@H](CO)NC(=O)[C@H](CCCNC(=N)N)NC(=O)[C@H](CO)NC(=O)[C@@H](NC(=O)[C@@H](NC(=O)[C@H](C)NC)[C@@H](C)CC)CSSC1(C)C)C(=O)N1CCC[C@H]1C(=O)N[C@@H](CC(=O)NCc1ccccc1)C(N)=O (stereo in doubt) [Example 462]
- IC50 [2]: 61 nM
- IC50 [3]: 160 nM
- IC50 [4]: 12 nM
- IC50 [5]: 150 nM

Compound: CC[C@H](C)[C@H](NC(=O)CNC)C(=O)N[C@H]1CSSC(C)(C)[C@@H](C(=O)N[C@H](C(=O)N2CCC[C@H]2C(=O)NCCOCCOCCOCCOCCOCCOCCOCCOCCOCCC(N)=O)[C@@H](C)CC)NC(=O)[C@H]([C@@H](C)CC)NC(=O)[C@@H]2CCCN2C(=O)[C@@H]2CCCN2C(=O)[C@H](CC(C)(C)C)NC(=O)[C@H](CO)NC(=O)[C@H](CCCNC(=N)N)NC(=O)[C@H](CO)NC1=O [Example 44, ((N-Me)G)-IC+SRS-((tBu)A)-PPI-(Pen)+IP-(PEG9(31 Atoms))-NH2] (H-[Sar]ICSRS[tBuAla]PPI[Pen]IP[PEG9]-NH2; disulfide 3-11)
- IC50 [6]: 73 nM
- IC50 [2]: 68.5 nM
- IC50 [3]: 87 nM
- IC50 [5]: 35 nM

Compound: AIC+SRSLP-(Oic)-I-(Pen)+IPD-OH [Example 5]
- IC50 [1]: 214 nM
- IC50 [2]: 10.3 nM

Compound: CC[C@H](C)[C@H](NC(=O)[C@H](C)N)C(=O)N[C@H]1CSSC[C@@H](C(=O)N[C@H](C(=O)N2CCC[C@H]2C(=O)N[C@@H](CC(=O)O)C(N)=O)[C@@H](C)CC)N(C)C(=O)[C@H]([C@@H](C)CC)NC(=O)[C@@H]2CCCN2C(=O)[C@@H]2CCCN2C(=O)[C@H](CC(C)(C)C)NC(=O)[C@H](CO)NC(=O)[C@H](CCCNC(=N)N)NC(=O)[C@H](CO)NC1=O [Example 48, AIC+SRS-((tBu)A)-PPI-((N-Me)C)+IPD-NH2] (H-AICSRS[tBuAla]PPI[NMeC]IPD-NH2; disulfide 3-11)
- IC50 [6]: 225 nM
- IC50 [2]: 102 nM
- IC50 [3]: 51.5 nM
- IC50 [4]: 1.95 nM

Compound: AIC+SRSLP-(Oic)-I-(Pen)+IPD-NH2 [Example 27]
- IC50 [1]: 146 nM
- IC50 [2]: 8.5 nM

Compound: CC[C@H](C)[C@H](NC(=O)[C@H](C)N)C(=O)N[C@H]1CSSC(C)(C)[C@@H](C(=O)N[C@H](C(=O)N2CCC[C@H]2C(=O)N[C@@H](CC(=O)O)C(N)=O)[C@@H](C)CC)NC(=O)[C@H]([C@@H](C)CC)NC(=O)[C@@H]2CC3(CC3)CN2C(=O)[C@@H]2CCCN2C(=O)[C@H](CC(C)(C)C)NC(=O)[C@H](CO)NC(=O)[C@H](CCCNC(=N)N)NC(=O)[C@H](CO)NC1=O [Example 45, AI-C+SRS-((tBu)A)-P-((6S)-5-Azaspiro[2.4]heptane-6-carboxylic acid)-I(Pen)+IPD-NH2] (H-AICSRS[tBuAla]P[Pro(4-spirocPr)]I[Pen]IPD-NH2; disulfide 3-11)
- IC50 [6]: 24.5 nM
- IC50 [2]: 18.6 nM
- IC50 [3]: 40 nM
- IC50 [4]: 1.83 nM
